Source: US20150359884A1, “MULTI-PHOTON ISOMERISATION OF COMBRETASTATINS AND THEIR USE IN THERAPY” (priority 2011, published 2015)

Tests used:
[1] = Two-photon absorption cross section using reference fluorophore 9-chloroanthracene; assay type: physicochemical; conditions: at 620 nm, DCM
Source text: Cell images were overlaid using Adobe Photoshop CS3.
Published cross sections for two photon absorption (σ2, the probability of an absorption process or photon interaction) typically show large variations depending on the method of measurement, using either the Z-scan method or a reference fluorophore, and the power range and pulse duration of the laser used for excitation. We have attempted to determine values of σ2 for E-CA4 and E-ACA4 using a reference fluorophore. 9-Chloroanthracene (9CIA) was selected as a standard fluorophore with an appropriate fluorescence spectrum and for which 2PE cross-sections are available. The values of σ2 at 620 nm for E-CA4 and E-CA4F in DCM were determined to be 2.1±0.5 and 2.75±0.6 GM units respectively. […] Values of σ2 at 620 nm for E-ACA and E-DMAC were both 5.7±1.2. These larger values may be consistent with some charge transfer character of the excitation of these compounds.

[2] = Observed solubility in water; assay type: physicochemical; conditions: aqueous solution, comparison in words
[3] = Fluorescence lifetimes in solvents, two-photon excitation with TCSPC; assay type: physicochemical; conditions: 20° C., two-photon excitation 620-630 nm
Description: Fluorescence lifetimes were determined using 2PE at 630 nm with the microscope TCSPC setup (overall time response of 25 ps fwhm) and produced the results shown in Table 1. […] Characterisation of the spectroscopic properties of these latter two compounds remains to be investigated further. […] In the very viscous environment provided by glycerol the lifetime increases further to 1180 ps. In the range of alkanols studied the lifetime is closely correlated with solvent viscosity as shown in the inset to FIG. 3. […] However it is clear that the measured lifetime has the potential to report on cellular environments in FLIM studies. For E-CA4F similar trends are observed, but the overall differences in both lifetimes and quantum yields over the range of solvents are rather less than for E-CA4. The fluorescence lifetimes of E-CA4F are confined to a narrower range having values ranging from 440 ps in methanol through 740 ps in hexane to 1070 ps in glycerol. The more pronounced solvent dependence for E-CA4 no doubt reflects the more polar nature of the molecule compared with E-CA4F. The relative polarities may be judged from the partition coefficients (P) calculated according to the method of Brown et al..

[4] = Fluorescence quantum yields in solvents, UV one-photon excitation; assay type: physicochemical; conditions: 20° C., 290-300 nm excitation
Description: Absorption spectra were measured in either a Perkin Elmer Lambda 25 or 950 spectrophotometer. Fluorescence measurements were made with either a Spex Fluoromax or Varian Cary Eclipse spectrofluorimeter using the spectral correction curves supplied by the manufacturers. Fluorescence quantum yields with UV (one-photon) excitation were determined using either 2-aminopyridine (Φref 0.6 [7]) or 9-chloroanthracene (Φref 0.50 in dichloromethane, determined here relative to 9,10-diphenylanthracene in cyclohexane (Φref 0.97) and anthracene in ethanol (Φref 0.28 [8]) as standards. Fluorescence quantum yields were determined from the relative slopes of plots of integrated fluorescence intensity versus (1-10^−A) for samples having absorbance A≦0.1. The square of the refractive index (n^2) correction was applied when sample and reference compounds were in different solvents. Irradiation of the samples was minimized by the use of narrow excitation slits to reduce simultaneous photoisomerization.
The fluorescence quantum yields for E-CA4F were generally somewhat higher than for E-CA4.

[5] = Isomerization by two-photon absorption at 590 nm in DMSO solution; assay type: physicochemical; conditions: Z-CA4 1 mM in DMSO, two-photon excitation 590 nm
Description: FIG. 11. […] (A) Power dependence of FI from E-CA4 (0.4 mM) versus laser power at the sample. (B) Percentage conversion of Z-CA4 to the E-isomer versus laser power at the sample, calculated from the measured FI from a solution of Z-CA4 (1 mM) and a series of calibration curves using solutions of E-CA4 at each laser power.
Using 2PE the photochemical effects occur within the femtolitre volume of excitation. […] At any one instant, the concentration of isomerized compound in the focal volume will represent a steady state achieved through the balance of diffusion from the focal volume and the rate of photochemical formation.
Calibration curves were constructed of FI versus E-CA4 concentration at each laser power. These were then compared with the FI from the two-photon experiment with Z-CA4 to estimate the concentration of E-CA4 formed within the focal volume.

[6] = Picosecond time-resolved infrared (TRIR) spectroscopy of excited states; assay type: physicochemical; conditions: dichloromethane, 266 nm excitation
Description: The ultrafast time-resolved infrared (TRIR) experiments were performed on the ‘ULTRA’ laser system at the Science and Technology Facilities Council Rutherford Appleton Laboratory. The capabilities of the ULTRA instrument are described in detail elsewhere. Briefly, a chirped pulse amplified titanium:sapphire laser operating at 10 kHz repetition rate produced 40-80 fs duration pulses at a wavelength of 800 nm. The UV excitation pulse was generated from third harmonic generation of the 800 nm output of the amplifier with ˜50 fs duration at 266 nm, irradiating samples with a 1 μJ, 100 μm diameter beam. The mid-IR probe pulse was generated using ˜0.4 mJ of the 800 nm femtosecond output to pump an optical parametric amplifier, and difference frequency mixing of the signal and idler components. The mid-IR probe output pulses had ˜500 cm-1 bandwidth and ˜50 fs pulse duration. The UV pulses were polarized at a magic angle to the IR probe laser polarization. The timing between the pump and probe was performed using a PCcontrolled optical delay line. The sample in solution was placed between two 25 mm diameter CaF2 plates in a rasterscanned Harrick cell to limit irradiation of the sample by multiple pulses. The optical path of the sample between the two windows was controlled using a 100 μm PTFE spacer and the solution flowed using a peristaltic pump. The intensity of the transmitted mid-IR light was dispersed by a grating onto a pair of 128-element mercury-cadmium telluride array detectors (IR Associates), providing full (i.e. ˜500 cm-1) spectral coverage with every laser pulse. The overall instrument response time was ˜200 fs. A reference spectrum of the laser pulse (before the Harrick cell) was accumulated on a third, 64-element array detector and was used to remove the effects of laser fluctuations from the transient absorption data. Ground-state FTIR spectra were recorded using a Nicolet Avatar 360 spectrometer.
FIGS. 12 and 13 show the TRIR spectra of both isomers of CA4 following ultrafast electronic excitation using 266 nm, with the ground-state FTIR spectra shown beneath the time resolved data for comparison. To date there has been little characterization of combretastatins by infrared spectroscopy. However, the ground-state FTIR spectra have obvious similarities with stilbene and on this basis we assign the 1586/1581 and 1510/1509 cm-1 bands in E-CA4/Z-CA4 to the v8a ring stretches of the phenyl groups and v19a ring stretch with additional contributions from C—H in-plane bending. In the excited state spectra, there are negative absorption bands corresponding to bleaching of the ground-state absorptions and both the E- and Z-isomers are dominated by transient bands between 1350 and 1500 cm-1. At early times the transient bands show rapid shifting over about 10 cm-1 to higher wavenumbers associated with rapid ‘cooling’ of excess vibrational energy following electronic excitation as commonly observed in other molecular systems including DNA [26] and for the C═C stretching band of E-stilbene observed by time-resolved resonance Raman spectroscopy. It is also notable that for E-CA4 at pump-probe delays up to 20 ps, the intensities of the transient bands increase and this is most likely due to molecular rearrangements taking place lowering the overall symmetry of the molecule and increasing the cross-sections of these IR active modes. […]

cells = conditions: typical toxicity assays; cited from earlier work

SMILES: COc1ccc(/C=C/c2cc(OC)c(OC)c(OC)c2)cc1N [E-ACA, (E)-1-(3′-Amino-4′-methoxyphenyl)-2-(3″,4″,5″-trimethoxyphenyl)ethene]
- Two photon absorption cross section σ2 [1]: 5.7±1.2 GM units
- Solubility in water [2]: more soluble in water than the other combretastatins studied here
- Fluorescence lifetime τ ([3]; DMSO): 4.8 ns
- Fluorescence lifetime τ ([3]; EtOH, ne = non-exponential): ne
- Fluorescence lifetime τ ([3]; Ethylene glycol, ne = non-exponential): ne
- Fluorescence lifetime τ ([3]; Glycerol, ne = non-exponential): ne
- Fluorescence lifetime τ ([3]; Hexane): 1.65 ns
- Fluorescence lifetime τ ([3]; MeCN, ne = non-exponential): 3.6 ns
- Fluorescence lifetime τ ([3]; MeOH, ne = non-exponential): ne
- Fluorescence quantum yield φ ([4]; DCM): 0.43
- Fluorescence quantum yield φ ([4]; DMSO): 0.28
- Fluorescence quantum yield φ ([4]; Hexane): 0.38
- Fluorescence quantum yield φ ([4]; MeCN): 0.41
- Fluorescence quantum yield φ ([4]; MeOH): 0.11

SMILES: COc1ccc(/C=C\c2cc(OC)c(OC)c(OC)c2)cc1O [Z-CA4, combretastatin A4, reference compound]
- Concentration of E-CA4 formed within the focal volume [5]: about 250 μM
- Conversion of the initial concentration of Z-CA4 to the E-isomer [5]: 25%
- Excited state decay, longer lifetime (relaxed excited state) [6]: 10.1±0.71 ps
- Excited state decay, shorter lifetime (biexponential fit) [6]: 1.5±0.15 ps
- Concentrations required to kill cells (cells): nanomolar
